Results reported in patent US10039729B2, “Use of kukoamine A and kukoamine B” (Tianjin Chase Sun Pharmaceutical Co., Ltd., priority 2010, dated 2018).

Key:
[1] = tested on: RAW264.7 cells; experiment: Release of TNF-α and IL-6 in RAW264.7 cells induced by LPS and CpG DNA (ELISA); assay type: cell-based, murine; conditions: for release of TNF-α induced by CpG DNA / release of TNF-α induced by LPS: 0, 50 and 100 ng/ml, 4 h, p<0.01
Procedure: 6.1 Methods: RAW264.7 cells were diluted to 1×10^6/ml in DMEM supplemented with 10% (v/v) NCS, added into 96-well plates (200 μl per well), and cultured at 37° C. in a 5% CO2 humidified incubator for 4 h until cells adhere to the wall; culture medium were replaced with fresh culture medium, added with KA and KB (final concentrations of 0, 50 and 100 ng/ml), and added with LPS (final concentration of 100 ng/ml) and CpG DNA (final concentration of 10 μg/ml); at the same time, medium group without any reagent was established; subsequently, RAW264.7 cells were incubated for 4 h; and the supernatant was collected for further detection; detection of the TNF-α concentration was performed according to the manufacturer's instructions of ELISA kit. Result was expressed by means of mean±standard deviation.
12.1 Methods: According to the method in embodiment 6, KB was dissolved in DMEM supplemented with 10% (v/v) NCS, subsequently transferred into Culture medium of RAW264.7 cells to achieved final concentrations of 100 and 200 μM, added with LPS (final concentration of 100 ng/ml) and CpG DNA (final concentration of 10 μg/ml), incubated for 24 h, and then collected supernatant; the concentration of TNF-α and IL-6 of each group was detected according to the manufacturer's instructions of ELISA kit; result was expressed by means of mean±standard deviation.
13.1 Methods: According to the method in embodiment 6, KB and PMB were separately dissolved in DMEM supplemented with 10% (v/v) NCS, subsequently transferred into culture medium of RAW264.7 cells to achieved final concentrations of 50, 100 and 200 μM, and then added with LPS (final concentration of 100 ng/ml) and CpG DNA (final concentration of 10 μg/ml); RAW264.7 cells continued to be incubated; the supernatant were collected four hours later for TNF-α detection; the supernatant were collected 12 hours later for IL-6 detection; the concentration of TNF-α and IL-6 of each group was detected according to the manufacturer's instructions of ELISA kit; result was expressed by means of mean±standard deviation.
17.1 Methods: RAW264.7 cells was diluted to 1×10^6/ml in DMEM supplemented with 10% (v/v) NCS, transferred into 96-well plates (200 μl per well) and cultured at 37° C. in a 5% CO2 humidified incubator for 4 h.
(1) Observation of dose-dependent effects: For the purpose of experiment a medium group and a KB treatment group were established; each group included three repeated wells; medium group was added with no reagent; KB treatment group was added with KB (final concentrations of 12.5, 25, 50, 100 and 200 μM) in each well, and subsequently added with LPS (final concentration of 100 ng/ml) or CpG DNA (final concentration of 10 μg/ml); cells were cultured at 37° C. in a 5% CO2 humidified incubator for 12 h; the supernatant was collected for further detection; operations were performed according to the manufacturer's instructions of ELISA kit, and the result was expressed by means of mean±standard deviation.
(2) Observation of time-dependent effects: For the purpose of experiment a medium group, a stimulation group and a KB treatment group were established; each group contained three repeated wells; medium group was added with no reagent; stimulation group was added with LPS and CpG DNA; KB treatment group was added with LPS and CpG DNA, in the meantime added with KB (final concentration of 200 μM); cells continued to be cultured at 37° C. in a 5% CO2 humidified incubator; the supernatant at time point of 0, 2, 4, 8, 12 and 24 h after stimulation was separately collected for further detection; detection of TNF-α concentration was performed according to the manufacturer's instructions of ELISA kit, and the result was expressed by means of mean±standard deviation.
18.1 Methods: RAW264.7 cells were diluted to 1×10^6/ml in DMEM supplemented with 10% (v/v) NCS, transferred into 96-well plates (200 μl per well) and cultured at 37° C. in a 5% CO2 humidified incubator for 4 h. […]

[2] = Neutralization of LPS in vitro (TAL / kinetic turbidimetric limulus test); assay type: biochemical; conditions: for IC50: LPS 2 ng/ml, 0.5-128 μM, read-out: Half inhibitory concentration (IC50) on LPS; for neutralizing activity with LPS: 1, 2 and 4 μg/ml with equal volume of LPS (2.0 ng/ml), 30 min, p<0.05 or p<0.01, dose-dependent
Procedure: 2.3.1 Methods: CL-4b was dissolved into LPS-free water to make 8 μg/ml solution, and incubated with equal volume of LPS (1 ng/mL) at 37° C. for 30 min. Subsequently, 100 μl mixed solution of CL-4b and LPS was added with equal volume of the quantitative TAL reagents dissolved in LPS-free water, gently shaked to mix the contents, and reacted at 37° C. for 60 min in kinetic tube reader. The agglutination of TAL reagent induced by the existence of non-neutralized LPS was measured. The mixture of LPS and equal volume of LPS-free water act as positive control. Each group contained three repeated tubes. The result was expressed in EU/ml, the endotoxin unit of LPS. Operation was performed according to the manufacturer's instructions of EDS-99 Bacterial Endotoxin Detecting system.
4.1 Methods: KA and KB (1, 2 and 4 μg/ml) were separately mixed with equal volume of LPS (2.0 ng/ml) and pre-incubated at 37 for 30 min; LPS control group was added with equal volume of nonpyrogenic water; LPS value was detected by kinetic turbidimetric limulus test after incubation; detection of each concentration was repeated three times; LPS content was expressed by means of mean±standard deviation; operation was performed according to the manufacturer's instructions of EDS-99 Bacterial Endotoxin Detecting system.
11.1 Methods: KB and PMB were separately diluted with LPS-free water to make solutions of 0.5, 1, 2, 4, 8, 16, 32, 64 and 128 μM; according to the methods in embodiment 4, above solutions were separately mixed with equal volume of LPS (2 ng/ml), and neutralizing activity was assayed.

[3] = 50, 100 and 200 μM, CpG DNA 10 μg/ml, TNF-α at 4 h, IL-6 at 12 h
[4] = 50, 100 and 200 μM, LPS 100 ng/ml, TNF-α at 4 h, IL-6 at 12 h
[5] = CpG DNA 10 μg/ml, dose-dependent

Row | Molecule | release of TNF-α and IL-6 induced by CpG DNA [1, 3] | release of TNF-α and IL-6 induced by LPS [1, 4] | IC50 [2] [µM] | release of TNF-α induced by CpG DNA [1, 5] | release of TNF-α induced by LPS ([1]; LPS 100 ng/ml, dose-dependent) | release of TNF-α and IL-6 induced by CpG DNA ([1]; 100 and 200 μM, CpG DNA 10 μg/ml, 24 h) | release of TNF-α and IL-6 induced by LPS ([1]; 100 and 200 μM, LPS 100 ng/ml, 24 h) | difference of RAW264.7 cells activation (TNF-α release) vs CpG DNA group ([1]; KB 12.5 μM, CpG DNA 10 μg/ml, 12 h, p>0.05) | difference of RAW264.7 cells activation (TNF-α release) vs LPS group ([1]; KB 12.5 μM, LPS 100 ng/ml, 12 h, p>0.05) | inhibitory activity on TNF-α release induced by CpG DNA ([1]; KB 25 μM and above, CpG DNA 10 μg/ml, 12 h, p<0.05 or p<0.01, dose-dependent) | inhibitory activity on TNF-α release induced by LPS ([1]; KB 25 μM and above, LPS 100 ng/ml, 12 h, p<0.05 or p<0.01) | TNF-α release, KB added before vs at the time of stimulation ([1]; KB 200 μM added 40 or 20 min before vs at 0 min, LPS 200 ng/ml or CpG DNA 20 μg/ml) | TNF-α levels in supernatant at various time points, CpG DNA ([1]; KB 200 μM, CpG DNA 10 μg/ml, 0, 2, 4, 8, 12 and 24 h) | release of TNF-α and IL-6 induced by LPS and CpG DNA ([1]; KB 200 μM, LPS 100 ng/ml, CpG DNA 10 μg/ml, selectivity panel) | TNF-α levels in supernatant at various time points, LPS ([1]; KB 200 μM, LPS 100 ng/ml, 0, 2, 4, 8, 12 and 24 h) | antagonistic effect on other irritant (Pam3CSK4, Poly I:C, TNF-α, IL-1β) ([1]; KB 200 μM, Pam3CSK4 10 μg/ml, Poly I:C 20 μg/ml, TNF-α 50 ng/ml, IL-1β 50 ng/ml) | release of TNF-α induced by LPS and CpG DNA under serum-free conditions ([1]; KB 50, 100 and 200 μM, serum-free DMEM, 12 h, dose-dependant) | inhibition on TNF-α release induced by LPS and CpG DNA, KB preincubated with stimulus ([1]; KB preincubated with LPS or CpG DNA for 20 min or 40 min before loading, 12 h) | neutralizing activity with LPS [2]
1 | polymyxin B [PMB, reference compound] | can only inhibit the release of TNF-α and IL-6 induced by LPS | inhibit the release of TNF-α and IL-6 | 4.8 | – | – | – | – | – | – | – | – | – | – | – | – | – | – | – | –
2 | NCCCN(CCCCNCCCNC(=O)CCc1ccc(O)c(O)c1)C(=O)CCc1ccc(O)c(O)c1 [KB, Kukoamine B] | inhibit the release of TNF-α and IL-6 | inhibit the release of TNF-α and IL-6 | 14.9 | inhibit the release of TNF-α | inhibit the release of TNF-α | inhibit the release of TNF-α and IL-6 | inhibit the release of TNF-α and IL-6 | no statistic significance | no statistic significance | significantly increased | significantly increased | no significant difference | all decreased | can only inhibit the release of TNF-α and IL-6 induced by LPS and CpG DNA | all decreased | no antagonistic effect on other irritant | still inhibit the release of TNF-α | significantly enhanced | significant neutralizing activity
3 | O=C(CCc1ccc(O)c(O)c1)NCCCNCCCCNCCCNC(=O)CCc1ccc(O)c(O)c1 [KA, Kukoamine A] | – | – | – | inhibit the release of TNF-α | inhibit the release of TNF-α | – | – | – | – | – | – | – | – | – | – | – | – | – | significant neutralizing activity
